From patent publication US9040479B2, “HCV NS3 protease inhibitors” (RFS Pharma, LLC, priority 2012, dated 2015)
Several values for one entry are separate records, joined by “and”; a condition that tells them apart may be missing. Equal values may be shown once.

Columns and labels:
[1] = system: HCV replicon RNA in Huh 7 Clone B cells; assay: HCV replicon assay (replicon RNA by real time RT-PCR); format: cell-based; conditions: for HCV Ct: single replicates
Description: (§1) Following five days incubation (37° C., 5% CO2), total cellular RNA was isolated by using versaGene RNA purification kit from Gentra. Replicon RNA and an internal control (TaqMan rRNA control reagents, Applied Biosystems) were amplified in a single step multiplex Real Time RT-PCR Assay. The antiviral effectiveness of the compounds was calculated by subtracting the threshold RT-PCR cycle of the test compound from the threshold RT-PCR cycle of the no-drug control (ΔCt HCV). A ΔCt of 3.3 equals a 1-log reduction (equal to 90% less starting material) in Replicon RNA levels. The cytotoxicity of the compounds was also calculated by using the ΔCt rRNA values. (2′-Me-C) was used as the control. To determine EC90 and IC50 values^2, ΔCt: values were first converted into fraction of starting material^3 and then were used to calculate the % inhibition. […]

[2] = HCV replicon assay, cytotoxicity from rRNA Ct values; format: cell-based; conditions: human, Huh 7 Clone B cells containing HCV replicon RNA; from rRNA, Huh 7 Clone B cells
Description: as §1

[3] = system: Huh 7 Clone B cells (rRNA); assay: as above; format: cell-based; conditions: for rRNA Ct: single replicates
Description: as §1

[4] = Cytotoxicity assay in PBM cells; format: cell-based; conditions: human, figure in parentheses not defined
Description: (§2) The toxicity of the compounds was assessed in Vero, human PBM, CEM (human lymphoblastoid), MT-2, and HepG2 cells, as described previously (see Schinazi R. F., Sommadossi J.-P., Saalmann V., Cannon D. L., Xie M.-Y., Hart G. C., Smith G. A. & Hahn E. F. Antimicrob. Agents Chemother. 1990, 34, 1061-67). Cycloheximide was included as positive cytotoxic control, and untreated cells exposed to solvent were included as negative controls. The cytotoxicity IC50 was obtained from the concentration-response curve using the median effective method described previously (see Chou T.-C. & Talalay P. Adv. Enzyme Regul. 1984, 22, 27-55; Belen'kii M. S. & Schinazi R. F. Antiviral Res. 1994, 25, 1-11).

[5] = Cytotoxicity assay in CEM cells; format: cell-based; conditions: human, CEM (human lymphoblastoid) cells
Description: as §2

[6] = Cytotoxicity assay in Vero cells; format: cell-based; conditions: African green monkey, figure in parentheses not defined
Description: as §2

HepG2 cells = HepG2 cells incubated with 10 μM; cited from earlier work
[7] = Hepatitis C virus, Huh-7, 120 h, HCV replicon, five days incubation

For C=C[C@@H]1C[C@]1(NC(=O)[C@@H]1C[C@@H](OC(=O)N2Cc3cccc(F)c3C2)CN1C(=O)[C@@H](NC(=O)C(C)(C)C(F)(F)F)C(C)(C)C)C(=O)NS(=O)(=O)C1CC1 [drawing 12], the “% Inhit (HCV)” value ([1]; 3 nM) was −33.8%, the “DCt HCV” value ([1]; 3 nM) was −0.4 and the “HCV Ct Average” value ([1]; 3 nM) was 22.8. The “HCV Ct” value ([1]; 3 nM) was 22.6 (2×) and 23.2, the “% Inhit (HCV)” value ([1]; 10 nM) was 91.7% and the “DCt HCV” value ([1]; 10 nM) was 3.6. The “HCV Ct Average” value ([1]; 10 nM) was 26.8, the “HCV Ct” value ([1]; 10 nM) was 27.0 and 26.9 and 26.6 and the “% Inhit (HCV)” value ([1]; 33 nM) was 98.0%. The “DCt HCV” value ([1]; 33 nM) was 5.7, the “HCV Ct Average” value ([1]; 33 nM) was 28.9 and the “HCV Ct” value ([1]; 33 nM) was 29.2 and 29.1 and 28.4. The “% Inhit (HCV)” value ([1]; 100 nM) was 99.4%, the “DCt HCV” value ([1]; 100 nM) was 7.3 and the “HCV Ct Average” value ([1]; 100 nM) was 30.5. The “HCV Ct” value ([1]; 100 nM) was 30.3 and 30.5 and 30.8, the EC50 [1, 7] was 7.7 nM and the EC90 [1, 7] was 9.9 nM. The CC50 at 5 days [2] was > 100 nM, the “DCt rRNA” value ([3]; 3 nM) was −0.8 and the “rRNA Ct Average” value ([3]; 3 nM) was 19.2. The “rRNA Ct” value ([3]; 3 nM) was 19.2 and 19.3 and 18.9, the “DCt rRNA” value ([3]; 10 nM) was −0.9 and the “rRNA Ct Average” value ([3]; 10 nM) was 19.0. The “rRNA Ct” value ([3]; 10 nM) was 19.2 and 18.9 and 19.0, the “DCt rRNA” value ([3]; 33 nM) was −0.8 and the “rRNA Ct Average” value ([3]; 33 nM) was 19.1. For the same compound, the “rRNA Ct” value ([3]; 33 nM) was 19.2 (2×) and 19.1, the “DCt rRNA” value ([3]; 100 nM) was −1.0 and the “rRNA Ct Average” value ([3]; 100 nM) was 19.0. For the same compound, the “rRNA Ct” value ([3]; 100 nM) was 19.0 and 18.8 and 19.2, the inhibition at 0.003 µM ([3]; Homo sapiens, Huh-7, 3 nM, read-out: % inhib. rRNA) was -74.8% and the inhibition at 0.01 µM ([3]; Homo sapiens, Huh-7, 10 nM, read-out: % inhib. rRNA) was -89.1%. For the same compound, the inhibition at 0.033 µM ([3]; Homo sapiens, Huh-7, 33 nM, read-out: % inhib. rRNA) was -75.6% and the inhibition at 0.1 µM ([3]; Homo sapiens, Huh-7, 100 nM, read-out: % inhib. rRNA) was -95.2%.

For C=C[C@@H]1C[C@]1(NC(=O)[C@@H]1C[C@@H](OC(=O)N2Cc3cccc(F)c3C2)CN1C(=O)[C@@H](NC(=O)C(C)(C)C(F)(F)F)C(C)(C)C)C(=O)NS(=O)(=O)C1CC1 [drawing 11], the IC50 [4] was > 100 µM, the IC50 [5] was 85.1 µM and the IC50 [6] was ≥ 100 µM.

In the case of O=c1[nH]c(=O)n([C@@H]2O[C@H](CO)[C@@H](O)[C@@H]2F)cc1I [fialuridine, 1,2′-deoxy-2′-fluoro-1-D-arabinofuranosly-5-iodo-uracil], the “morphological changes in mitochondria (electron micrographs)” value (HepG2 cells) is given as “enlarged mitochondria with morphological changes consistent with mitochondrial dysfunction”.
